Data published in patent publication US9062051B2, “Compounds and pharmaceutical compositions thereof for the treatment of proliferative disorders” (GALAPAGOS NV, priority 2014, dated 2015).

Tests used:
[1] = Pharmacokinetics in mice (exposure, AUC); format: in vivo; settings: male, CD1, plasma; mouse, 30 mg/kg, po
Protocol: This study was performed with 42 naïve male CD1 mice (18-20 g, 4-5 weeks old). Mice are obtained from Janvier, Le Genest St Isle, France.
A controlled environment was maintained in the room with optimal conditions of approximately 15 air changes per hour, a temperature of 22±2 C, a relative humidity of 30-70% and a 12 hour light/12 hour dark cycle (nightlight during the night period).
Pelleted diet for rodents (UAR A04C-10) was used and was provided ad libitum. Before p.o. dosing, the animals are deprived of food for at least 12 hours before compound administration and 4 hours after administration. All animals had free access to tap water.
[…] The i.v. bolus administration is given with a dose volume of 5 mL/kg and the oral administration is given with a dose volume of 10 mL/kg. Actual dose volumes are based on the mean of 10 body weights.
The vehicle used to formulate compounds for oral administration is methylcellulose in water (0.5% in water)
From all animals approximately 500 μL blood samples are collected by intra-cardiac puncture under gaseous anesthesia and placed into tubes containing Li-heparin as anticoagulant. Blood samples are collected at various time points (i.v.: 0.05, 0.25, 0.5, 1, 3, 5 and 8 hours after dosing; p.o.: 0.25, 0.5, 1, 3, 5, 8 and 24 hours after dosing). Each mouse is sampled once and euthanized.
Blood is kept on ice. Within 1 hour after sampling, blood is centrifuged at 5,000 rpm for 10 min at 4° C. Immediately after centrifugation, the resulting plasma samples are collected into polypropylene tubes and are kept frozen at −20° C. pending bioanalysis.
Plasma samples are assayed by LC-MS/MS. Plasma proteins are precipitated with an excess of methanol containing the internal standard and the corresponding supernatant is injected on a C18 column. Analytes are eluted out the HPLC system by increasing the percentage of the organic mobile phase. An API4000 mass spectrometer (AB Sciex™) is used for the detection and quantification.
Pharmacokinetic parameters are calculated by non-compartmental analysis using WinNonlin® software (Pharsight, version 5.2).

EphA2 = molecular target: T1, EphA2 (UniProt Ref: P29317) (Homo sapiens, UniProt P29317); assay: EphA2 assay (Reaction Biology HotSpot radioactive kinase assay); format: biochemical; settings: ATP 10 μM; read-out: EphA2 potency IC50
T1 construct: purchased Reaction Biology
T1 sequence (P29317 24-976): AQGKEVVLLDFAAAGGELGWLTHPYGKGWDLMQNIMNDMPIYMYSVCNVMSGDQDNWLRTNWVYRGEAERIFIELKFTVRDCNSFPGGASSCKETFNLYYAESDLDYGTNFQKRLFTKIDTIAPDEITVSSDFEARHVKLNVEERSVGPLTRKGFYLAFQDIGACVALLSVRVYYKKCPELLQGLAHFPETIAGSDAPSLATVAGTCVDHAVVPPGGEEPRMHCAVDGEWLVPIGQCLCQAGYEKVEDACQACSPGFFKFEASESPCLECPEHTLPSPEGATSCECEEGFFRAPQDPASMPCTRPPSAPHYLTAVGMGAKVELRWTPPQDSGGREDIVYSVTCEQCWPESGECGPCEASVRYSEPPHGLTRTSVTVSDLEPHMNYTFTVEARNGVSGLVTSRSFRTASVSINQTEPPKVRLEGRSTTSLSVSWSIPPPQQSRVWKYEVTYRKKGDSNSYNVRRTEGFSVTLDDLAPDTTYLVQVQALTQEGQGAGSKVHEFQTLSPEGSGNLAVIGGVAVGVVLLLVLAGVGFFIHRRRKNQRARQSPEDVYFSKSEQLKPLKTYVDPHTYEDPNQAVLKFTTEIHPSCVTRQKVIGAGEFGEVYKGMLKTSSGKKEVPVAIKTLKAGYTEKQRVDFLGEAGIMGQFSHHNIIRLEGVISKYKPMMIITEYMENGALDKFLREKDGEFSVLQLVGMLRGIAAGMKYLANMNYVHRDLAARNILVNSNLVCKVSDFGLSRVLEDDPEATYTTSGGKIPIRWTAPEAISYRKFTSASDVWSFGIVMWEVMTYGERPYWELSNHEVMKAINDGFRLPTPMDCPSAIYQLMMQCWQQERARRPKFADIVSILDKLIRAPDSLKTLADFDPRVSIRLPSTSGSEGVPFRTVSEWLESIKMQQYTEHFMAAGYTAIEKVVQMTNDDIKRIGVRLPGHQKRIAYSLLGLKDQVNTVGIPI
Outline: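 Radiometric HotSpot assay measuring ^33P incorporation from [^33P]-γ-ATP into poly[Glu:Tyr] (4:1) (0.2 mg/mL) with 10 μM ATP. IC50 from serial 1/3 dilutions starting at 10 or 3 μM.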

EphA4 = molecular target: T2, EphA4 (UniProt Ref: P54764) (Homo sapiens, UniProt P54764); assay: EphA4 assay (Reaction Biology HotSpot radioactive kinase assay); format: biochemical; settings: EphA4 potency; ATP 10 μM
T2 construct: purchased Reaction Biology
T2 sequence (P54764 20-986): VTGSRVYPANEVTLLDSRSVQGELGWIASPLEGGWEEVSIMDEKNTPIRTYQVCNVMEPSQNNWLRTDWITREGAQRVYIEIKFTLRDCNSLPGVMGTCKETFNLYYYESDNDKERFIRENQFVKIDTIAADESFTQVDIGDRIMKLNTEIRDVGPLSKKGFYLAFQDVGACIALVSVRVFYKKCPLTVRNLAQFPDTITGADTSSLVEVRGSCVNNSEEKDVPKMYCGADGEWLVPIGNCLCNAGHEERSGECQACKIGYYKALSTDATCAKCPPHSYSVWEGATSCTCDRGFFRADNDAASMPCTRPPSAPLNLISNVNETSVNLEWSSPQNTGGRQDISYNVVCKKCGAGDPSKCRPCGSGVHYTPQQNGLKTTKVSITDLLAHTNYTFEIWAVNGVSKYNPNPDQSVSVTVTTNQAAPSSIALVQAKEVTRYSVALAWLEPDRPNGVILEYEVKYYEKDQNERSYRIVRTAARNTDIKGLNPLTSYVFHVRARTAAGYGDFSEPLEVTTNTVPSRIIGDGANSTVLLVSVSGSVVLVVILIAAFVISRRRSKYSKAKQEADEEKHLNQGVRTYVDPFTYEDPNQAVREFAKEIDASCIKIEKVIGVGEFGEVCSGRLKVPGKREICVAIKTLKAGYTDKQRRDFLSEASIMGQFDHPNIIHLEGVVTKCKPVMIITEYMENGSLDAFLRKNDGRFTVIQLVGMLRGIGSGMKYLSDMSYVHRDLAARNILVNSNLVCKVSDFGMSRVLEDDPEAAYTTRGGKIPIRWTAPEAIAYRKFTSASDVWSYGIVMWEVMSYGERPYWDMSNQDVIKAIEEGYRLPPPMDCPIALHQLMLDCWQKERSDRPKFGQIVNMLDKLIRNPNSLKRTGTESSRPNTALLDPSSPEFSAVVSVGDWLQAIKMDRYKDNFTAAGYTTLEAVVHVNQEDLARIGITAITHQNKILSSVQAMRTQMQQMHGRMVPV
Protocol: (§1) Inhibition of EphA4 (UniProt Ref: P54764) by a test compound is determined by a commercially available Reaction Biology proprietary nanoliter radioactive HotSpot^SM assay (Reaction Biology, One great valley parkway, Suite 2, Malvern Pa., 19355, USA). The principle of the assay consists of the measurement of incorporated ^33P into poly[Glu:Tyr] (4:1) (0.2 mg/mL) when the substrate is phosphorylated by the enzyme using [^33P]-γ-ATP and ATP (10 μM).
(§2) To determine the IC50, a serial dilution of compound is tested starting from 10 or 3 μM (highest dilution) with a 1/3 dilution.

EphB4 = molecular target: T3, EphB4 (UniProt Ref: Q541P7) (Homo sapiens, UniProt P54760); assay: EphB4 assay (Reaction Biology HotSpot radioactive kinase assay); format: biochemical; settings: ATP 10 μM; read-out: EphB4 potency IC50
T3 construct: purchased Reaction Biology
T3 sequence (P54760 16-987): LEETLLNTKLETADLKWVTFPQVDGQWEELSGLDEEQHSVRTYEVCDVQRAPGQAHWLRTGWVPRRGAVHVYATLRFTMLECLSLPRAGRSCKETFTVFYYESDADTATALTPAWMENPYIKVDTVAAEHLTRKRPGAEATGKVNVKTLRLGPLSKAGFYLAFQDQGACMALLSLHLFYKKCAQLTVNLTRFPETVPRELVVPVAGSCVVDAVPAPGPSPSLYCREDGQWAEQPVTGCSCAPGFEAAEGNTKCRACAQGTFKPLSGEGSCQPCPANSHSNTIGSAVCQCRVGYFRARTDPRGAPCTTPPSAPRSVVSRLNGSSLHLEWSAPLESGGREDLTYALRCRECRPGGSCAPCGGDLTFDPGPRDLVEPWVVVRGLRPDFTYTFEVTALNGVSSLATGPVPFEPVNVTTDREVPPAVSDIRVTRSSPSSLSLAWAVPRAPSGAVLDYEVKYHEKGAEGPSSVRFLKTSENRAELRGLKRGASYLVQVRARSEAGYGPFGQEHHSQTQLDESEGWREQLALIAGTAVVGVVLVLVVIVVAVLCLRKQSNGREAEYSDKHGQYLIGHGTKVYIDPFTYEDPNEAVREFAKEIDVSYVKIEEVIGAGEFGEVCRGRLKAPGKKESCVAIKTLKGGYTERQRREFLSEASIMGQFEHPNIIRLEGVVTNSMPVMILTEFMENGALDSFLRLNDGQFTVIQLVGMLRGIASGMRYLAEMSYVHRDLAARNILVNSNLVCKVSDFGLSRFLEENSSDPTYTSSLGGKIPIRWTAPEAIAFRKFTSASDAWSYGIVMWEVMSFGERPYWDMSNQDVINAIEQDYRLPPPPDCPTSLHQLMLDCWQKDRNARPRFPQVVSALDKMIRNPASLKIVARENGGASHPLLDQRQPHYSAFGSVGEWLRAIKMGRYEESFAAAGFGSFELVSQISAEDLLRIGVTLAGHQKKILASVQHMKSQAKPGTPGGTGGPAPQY
Protocol: as §1, with “EphB4” for “EphA4”, “Q541P7)” for “P54764)”
as §2

AUC [1]: 39000 ng·h/mL
IC50 (EphA2): 0.01 to 25 nM
IC50 (EphA4): 50 to 100 nM
IC50 (EphB4): 0.01 to 25 nM
Compound: COc1cc(OC)cc(C(=O)Nc2ccc(C)c(-c3ccc4c([C@H](C)O)n[nH]c4n3)c2)c1 [Compound 47, N-{3-[3-((S)-1-Hydroxy-ethyl)-1H-pyrazolo[3,4-b]pyridin-6-yl]-4-methyl-phenyl}-3,5-dimethoxy-benzamide]
